Measured values published in patent publication US12493040B2, “Cancer detection method using sense of smell of nematode” (HIROTSU BIO SCIENCE INC., priority 2013, dated 2025).

System: RNAi-treated eri-1 (mg366) nematodes
Assay: RNAi screening of olfactory receptor genes: chemotaxis assay of RNAi-treated nematodes to odorants
Assay type: in vivo, Caenorhabditis elegans
Details: low concentration of attractant
Outline: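 eri-1 (mg366) worms knocked down by feeding RNAi (Ahringer library) on IPTG/ampicillin NGM plates with E. coli for 4 days, then tested for chemotaxis, 30–50 worms per assay. Odorants at 1 μl of 10^−3 or 10^−4 dilution, or 1 and 5 μl undiluted. Hits scored by z score, thresholds ±1.96 (P<0.05) or ±0.96.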

SMILES: CCC(=O)C(C)=O [pentanedione]
- chemotaxis index (Control nematodes): 0.49 ± 0.020
- chemotaxis index (srh-10 RNAi-treated nematodes): 0.68
- chemotaxis index (srh-11 RNAi-treated nematodes): 0.75
- chemotaxis index (srh-15 RNAi-treated nematodes): 0.44
- chemotaxis index (srh-16 RNAi-treated nematodes): 0.95
- chemotaxis index (srh-18 RNAi-treated nematodes): 0.96
- chemotaxis index (srh-19 RNAi-treated nematodes): 0.64
- chemotaxis index (srh-22 RNAi-treated nematodes): 0.42
- chemotaxis index (srh-23 RNAi-treated nematodes): 0.48
- chemotaxis index (srh-24 RNAi-treated nematodes): 0.59
- chemotaxis index (srh-25 RNAi-treated nematodes): 0.95
- chemotaxis index (srh-27 RNAi-treated nematodes): 0.27
- chemotaxis index (srh-28 RNAi-treated nematodes): 0.22
- chemotaxis index (srh-36 RNAi-treated nematodes): 0.26
- chemotaxis index (srh-37 RNAi-treated nematodes): 0.60
- chemotaxis index (srh-39 RNAi-treated nematodes): −0.24
- chemotaxis index (srh-40 RNAi-treated nematodes): 0.47
- chemotaxis index (srh-41 RNAi-treated nematodes): 0.57
- chemotaxis index (srh-44 RNAi-treated nematodes): 0.52
- chemotaxis index (srh-45 RNAi-treated nematodes): 0.26
- chemotaxis index (srh-46 RNAi-treated nematodes): 0.03
- chemotaxis index (srh-48 RNAi-treated nematodes): 0.38
- chemotaxis index (srh-49 RNAi-treated nematodes): 0.60
- chemotaxis index (srh-50 RNAi-treated nematodes): 0.53
- chemotaxis index (srh-51 RNAi-treated nematodes): 0.63
- chemotaxis index (srh-52 RNAi-treated nematodes): 0.51
- chemotaxis index (srh-55 RNAi-treated nematodes): 0.49
- chemotaxis index (srh-59 RNAi-treated nematodes): −0.14
- chemotaxis index (srh-60 RNAi-treated nematodes): 0.22
- chemotaxis index (srh-61 RNAi-treated nematodes): 0.40
- chemotaxis index (srh-67 RNAi-treated nematodes): 0.41
- chemotaxis index (srh-68 RNAi-treated nematodes): 0.21
- chemotaxis index (srh-69 RNAi-treated nematodes): 0.13
- chemotaxis index (srh-70 RNAi-treated nematodes): 0.25
- chemotaxis index (srh-71 RNAi-treated nematodes): 0.14
- chemotaxis index (srh-72 RNAi-treated nematodes): 0.29
- chemotaxis index (srh-74 RNAi-treated nematodes): 0.42
- chemotaxis index (srh-75 RNAi-treated nematodes): 0.53
- chemotaxis index (srh-77 RNAi-treated nematodes): 0.32
- chemotaxis index (srh-79 RNAi-treated nematodes): 0.53
- chemotaxis index (srh-80 RNAi-treated nematodes): 0.41
- chemotaxis index (srh-82 RNAi-treated nematodes): 0.49
- chemotaxis index (srh-83 RNAi-treated nematodes): 0.72
- chemotaxis index (srh-97 RNAi-treated nematodes): 0.74
- chemotaxis index (srh-99 RNAi-treated nematodes): 0.54
- chemotaxis index (srh-100 RNAi-treated nematodes): 0.35
- chemotaxis index (srh-104 RNAi-treated nematodes): −0.30
- chemotaxis index (srh-105 RNAi-treated nematodes): 0.27
- chemotaxis index (srh-109 RNAi-treated nematodes): 0.65
- chemotaxis index (srh-111 RNAi-treated nematodes): 0.39
- chemotaxis index (srh-113 RNAi-treated nematodes): 0.14
- chemotaxis index (srh-115 RNAi-treated nematodes): 0.39
- chemotaxis index (srh-116 RNAi-treated nematodes): 0.22
- chemotaxis index (srh-118 RNAi-treated nematodes): 0.44
- chemotaxis index (srh-119 RNAi-treated nematodes): 0.18
- chemotaxis index (srh-120 RNAi-treated nematodes): 0.80
- chemotaxis index (srh-122 RNAi-treated nematodes): 0.24
- chemotaxis index (srh-123 RNAi-treated nematodes): 0.30
- chemotaxis index (srh-125 RNAi-treated nematodes): 0.08
- chemotaxis index (srh-128 RNAi-treated nematodes): 0.49
- chemotaxis index (srh-129 RNAi-treated nematodes): 0.15
- chemotaxis index (srh-130 RNAi-treated nematodes): 0.36
- chemotaxis index (srh-214 RNAi-treated nematodes): 0.88
- chemotaxis index (srh-216 RNAi-treated nematodes): 0.65
- chemotaxis index (srh-217 RNAi-treated nematodes): 0.92
- chemotaxis index (srh-220 RNAi-treated nematodes): 0.67
- chemotaxis index (srh-222 RNAi-treated nematodes): 0.46
- chemotaxis index (srh-223 RNAi-treated nematodes): 0.23
- chemotaxis index (srh-227 RNAi-treated nematodes): 0.60
- chemotaxis index (srh-229 RNAi-treated nematodes): 0.12
- chemotaxis index (srh-233 RNAi-treated nematodes): 0.33
- chemotaxis index (srh-235 RNAi-treated nematodes): 0.51
- chemotaxis index (srh-236 RNAi-treated nematodes): 0.37
- chemotaxis index (srh-239 RNAi-treated nematodes): 0.49
- chemotaxis index (srh-241 RNAi-treated nematodes): 0.63
- chemotaxis index (srh-243 RNAi-treated nematodes): 0.00
- chemotaxis index (srh-244 RNAi-treated nematodes): 0.19
- chemotaxis index (srh-247 RNAi-treated nematodes): 0.38
- chemotaxis index (srh-250 RNAi-treated nematodes): 0.58
- chemotaxis index (srh-251 RNAi-treated nematodes): 0.32
- chemotaxis index (srh-252 RNAi-treated nematodes): 0.65
- chemotaxis index (srh-258 RNAi-treated nematodes): 0.35
- chemotaxis index (srh-261 RNAi-treated nematodes): 0.27
- chemotaxis index (srh-264 RNAi-treated nematodes): 0.46
- chemotaxis index (srh-266 RNAi-treated nematodes): 0.00
- chemotaxis index (srh-274 RNAi-treated nematodes): 0.82
- chemotaxis index (srh-275 RNAi-treated nematodes): 0.57
- chemotaxis index (srh-276 RNAi-treated nematodes): 0.45
- chemotaxis index (srh-277 RNAi-treated nematodes): 0.83
- chemotaxis index (srh-279 RNAi-treated nematodes): 0.55
- chemotaxis index (srh-281 RNAi-treated nematodes): 0.64
- chemotaxis index (srh-282 RNAi-treated nematodes): 0.73
- chemotaxis index (srh-283 RNAi-treated nematodes): 0.15
- chemotaxis index (srh-284 RNAi-treated nematodes): 0.36
- chemotaxis index (srh-291 RNAi-treated nematodes): 0.48
- chemotaxis index (srh-292 RNAi-treated nematodes): 0.52
- chemotaxis index (srh-293 RNAi-treated nematodes): 0.00
- chemotaxis index (srh-297 RNAi-treated nematodes): 0.32
- chemotaxis index (srh-298 RNAi-treated nematodes): 0.68
- chemotaxis index (srh-308 RNAi-treated nematodes): 0.39
